From the Deep4Chem optical property database
Blank lines part the entries; values can stand above or below the compound they belong to.

Test: solvent given as SMILES

Structure (SMILES): CC1=CC(C)=[N+]2C1=C(c1ccc(N3CCCCC3)cc1)c1c(C)cc(C)n1[B-]2(F)F
emission maximum (in C1CCOC1): 515 nm
emission maximum (in CC#N): 511 nm
emission maximum (in CC(=O)C(C)(C)C): 516 nm
emission maximum (in CC(C)=O): 515 nm
emission maximum (in CCCCCC): 511 nm
emission maximum (in CCOC(C)=O): 515 nm
emission maximum (in CO): 514 nm

emission maximum (in CCCCCC): 444 nm
Structure (SMILES): CC(C)[Si](C#Cc1ccc(C#C[Si](C(C)C)(C(C)C)C(C)C)c2nc3c(ccc4ccccc43)nc12)(C(C)C)C(C)C

emission maximum (in ClCCl): 523 nm
Structure (SMILES): CCCCCCCCCCCCN1C(=O)c2c(c3ccc4cc(-c5ccc(C=O)cc5)c(OC)cc4c3c3c2ccc2cc(-c4ccc(C=O)cc4)c(OC)cc23)C1=O

Structure (SMILES): CC1(C)c2ccccc2N(c2ccc3c(c2)S(=O)(=O)c2cc(N4c5ccccc5C(C)(C)c5ccccc54)ccc2C3(C)C)c2ccccc21
emission maximum (in Cc1ccccc1): 466.12 nm
emission maximum (in ClCCl): 506 nm

emission maximum (in C1CCOC1): 782 nm
emission maximum (in CN(C)C=O): 788 nm
emission maximum (in ClCCl): 785 nm
emission maximum (in c1ccccc1): 785 nm
Structure (SMILES): F[B-]1(F)n2c(c3cc4ccccc4cc3c2-c2ccccc2)C=C2c3cc4ccccc4cc3C(c3ccccc3)=[N+]21

emission maximum (in CN(C)C=O): 401 nm
Structure (SMILES): Cc1cc(-c2ccc(-c3nc4ccccc4[nH]3)cc2)c(C)cc1-c1ccc(-c2nc3ccccc3[nH]2)cc1

emission maximum (in ClCCl): 695 nm
Structure (SMILES): COCCOCCOCN1C(=O)c2ccc3c(-c4ccccc4)c4c5ccc6c7c(ccc(c(-c8ccccc8)c4c4ccc(c2c34)C1=O)c75)C(=O)N(COCCOCCOC)C6=O

Structure (SMILES): CN(C)c1ccc(/C=C/c2ccnc(/C=C/c3ccc(N(C)C)cc3)n2)cc1
emission maximum (in C1CCOC1): 484 nm
emission maximum (in CC#N): 513 nm
emission maximum (in CC(C)=O): 523 nm
emission maximum (in CCCCCCC): 433 nm
emission maximum (in CS(C)=O): 527 nm
emission maximum (in Cc1ccccc1): 455 nm
emission maximum (in ClCCl): 493 nm

Structure (SMILES): N#Cc1c(-n2c3ccccc3c3cc(I)ccc32)c(C#N)c(-n2c3ccccc3c3cc(I)ccc32)c(-n2c3ccccc3c3cc(I)ccc32)c1-n1c2ccccc2c2cc(I)ccc21
emission maximum (in Cc1ccccc1): 518 nm

emission maximum (in C1CCOC1): 472 nm
Structure (SMILES): c1cc2ccc1-c1ccc(cc1)-c1ccc(s1)-c1ccc(cc1)-c1ccc(cc1)-c1ccc(s1)-c1ccc(cc1)-c1ccc(cc1)-c1ccc(s1)-c1ccc(cc1)-c1ccc(cc1)-c1ccc-2s1

Structure (SMILES): N#Cc1nc2c3ccc(N(c4ccccc4)c4ccccc4)cc3c3cc(N(c4ccccc4)c4ccccc4)ccc3c2nc1C#N
emission maximum (in C1COCCO1): 586.91 nm
emission maximum (in CCCCCC): 515.27 nm
emission maximum (in Cc1ccccc1): 566 nm
emission maximum (in ClC(Cl)Cl): 639.45 nm
emission maximum (in O=P(c1ccccc1)(c1ccccc1)c1cccc(-c2cc(-n3c4ccccc4c4ccccc43)cc(-n3c4ccccc4c4ccccc43)c2)n1): 606 nm

emission maximum (in CC1CCCCC1): 650 nm
Structure (SMILES): c12c3c4c5c1c1c6c7c2c2c8c3c3c9c4c4c%10c5c5c1c1c6c6c%11c%12c%13c%14c%15c%16c%17c%14c%14c%18c%13c%11c1c1c5c%10c5c(c%14c%10c%17c%11c%13c%16c%14c%16c%15c%12c%12c%16c(c2c7c%126)c2c8c3c(c%13c%142)c2c9c4c5c%10c%112)c%181

Structure (SMILES): CCCCCCCCN1c2ccccc2Sc2cc(/C=C/c3ccc(N(c4ccc(/C=C/c5ccc6c(c5)Sc5ccccc5N6CCCCCCCC)cc4)c4ccc(/C=C/c5ccc(/C=C/c6ccc(N(c7ccc(/C=C/c8ccc(N(c9ccccc9)c9ccccc9)cc8)cc7)c7ccc(/C=C/c8ccc(N(c9ccccc9)c9ccccc9)cc8)cc7)cc6)c6nsnc56)cc4)cc3)ccc21
emission maximum (in C1CCOC1): 653 nm
emission maximum (in CCOC(C)=O): 646 nm
emission maximum (in CN(C)C=O): 749 nm
emission maximum (in Cc1ccccc1): 620 nm
emission maximum (in ClC(Cl)Cl): 668 nm
emission maximum (in ClCCl): 708 nm

emission maximum (in C1CCOC1): 332 nm
Structure (SMILES): F[Si](c1ccccc1)(c1ccccc1)c1cccc2ccccc12

Structure (SMILES): CC(C)(C)c1ccc2c(c1)B1c3cc(C(C)(C)C)ccc3Oc3cc(N4c5ccccc5C(C)(C)c5ccccc54)cc(c31)O2
emission maximum (in Cc1ccccc1): 458 nm

emission maximum (in ClC(Cl)Cl): 831 nm
Structure (SMILES): CCCCCCCCOc1ccc(-c2c3c4n(c(-c5ccc(OCCCCCCCC)cc5)c3c3n2[B-](c2ccccc2)(c2ccccc2)[n+]2c(ccc5cc(C(C)(C)C)ccc52)C=3C#N)[B-](c2ccccc2)(c2ccccc2)[n+]2c(ccc3cc(C(C)(C)C)ccc32)C=4C#N)cc1

Structure (SMILES): COC(=O)/C(C#N)=c1\s/c(=c2/s/c(=C(/C#N)C(=O)OC)c3cc(-c4ccc(OC)cc4)sc23)c2sc(-c3ccc(OC)cc3)cc12
emission maximum (in Cc1ccccc1): 680 nm

Structure (SMILES): O=Cc1cc(N2CCCCC2)c2ccc3c(N4CCCCC4)cc(N4CCCCC4)c4ccc1c2c43
emission maximum (in C1COCCO1): 557 nm
emission maximum (in CC#N): 596 nm
emission maximum (in CC(C)=O): 581 nm
emission maximum (in CCCCCC): 520 nm
emission maximum (in CCO): 635 nm
emission maximum (in CCOC(C)=O): 562 nm
emission maximum (in CO): 643 nm
emission maximum (in CS(C)=O): 601 nm
emission maximum (in Cc1ccccc1): 554 nm
emission maximum (in ClCCl): 597 nm

Structure (SMILES): CN(C)c1ccc(-c2nc3c(c4c2-c2ccc(C#N)cc2CC4)-c2ccc(C#N)cc2CC3)cc1
emission maximum (in C1CCOC1): 500 nm
emission maximum (in CC#N): 505 nm
emission maximum (in CCCCCC): 444 nm
emission maximum (in CCOC(C)=O): 489 nm
emission maximum (in CO): 489 nm
emission maximum (in CS(C)=O): 516 nm
emission maximum (in Cc1ccccc1): 469 nm
emission maximum (in ClCCl): 482 nm

emission maximum (in CC#N): 432 nm
emission maximum (in CO): 430 nm
emission maximum (in CS(C)=O): 438 nm
emission maximum (in ClC(Cl)Cl): 437 nm
Structure (SMILES): O=C1c2ccccc2C2=Cc3ccccc3B(O)N12

emission maximum (in CC#N): 628 nm
emission maximum (in CCCCCC): 623 nm
emission maximum (in CCOC(C)=O): 628 nm
emission maximum (in CO): 620 nm
emission maximum (in ClCCl): 630 nm
Structure (SMILES): COC1=[N+]2C(=C(c3ccccc3)c3ccc(OC)n3[B-]2(F)F)C=C1

emission maximum (in ClCCl): 422 nm
Structure (SMILES): CCOC(=O)c1c(-c2cc3ccc(OC)cc3oc2=O)nn(-c2cccc(Cl)c2)c1C(=O)OCC

emission maximum (in CO): 630 nm
emission maximum (in ClCCl): 618 nm
Structure (SMILES): CCCCCCN(CCCCCC)c1ccc(C#Cc2ccc([N+](=O)[O-])cc2)cc1

emission maximum (in ClCCl): 538 nm
Structure (SMILES): COc1ccc(N(c2ccc(OC)cc2)c2ccc(-c3ccc4nc5ccccc5c(=O)n4c3)cc2)cc1

emission maximum (in C1COCCO1): 488 nm
emission maximum (in CC#N): 513 nm
emission maximum (in CC(C)O): 514 nm
emission maximum (in CCO): 520 nm
emission maximum (in CCOC(C)=O): 494 nm
emission maximum (in CN(C)C=O): 524 nm
emission maximum (in CO): 527 nm
emission maximum (in CS(C)=O): 534 nm
emission maximum (in OCC(O)CO): 522 nm
emission maximum (in OCCO): 529 nm
Structure (SMILES): N#Cc1cccc2c(N)c(-c3nn([C@H]4C[C@H](O)[C@@H](CO)O4)c4ncnc(N)c34)ccc12

emission maximum (in CC#N): 452 nm
emission maximum (in CCOC(C)=O): 419 nm
emission maximum (in CN(C)C=O): 458 nm
emission maximum (in CS(C)=O): 466 nm
emission maximum (in c1ccccc1): 400 nm
Structure (SMILES): CCOC(=O)CN(CC(=O)OCC)c1ccc(-c2cc(-c3ccccn3)nc(-c3ccccn3)c2)cc1

emission maximum (in CC(=O)N(C)C): 717 nm
Structure (SMILES): CC(C)(C)c1cc(/C2=C3\C=CC(=N3)/C(c3ccc([N+](=O)[O-])cc3)=c3/cc/c([nH]3)=C(\c3ccc([N+](=O)[O-])cc3)C3=N/C(=C(/c4cc(C(C)(C)C)cc(C(C)(C)C)c4)c4cc2c[nH]4)C=C3)cc(C(C)(C)C)c1

emission maximum (in CC#N): 386 nm
emission maximum (in CCCCOCCCC): 385 nm
emission maximum (in CO): 383 nm
Structure (SMILES): CC(=O)Nc1ccc2ccc3cccc4ccc1c2c34

Structure (SMILES): Cc1cc(C)n2c1C=C1c3ccccc3C(c3c[nH]c4ccccc34)=[N+]1[B-]2(F)F
emission maximum (in C1CCOC1): 606 nm
emission maximum (in CC#N): 602 nm
emission maximum (in CCCCCC): 598 nm
emission maximum (in CO): 603 nm
emission maximum (in Cc1ccccc1): 608 nm
emission maximum (in ClCCl): 606 nm

emission maximum (in C1CCOC1): 406 nm
Structure (SMILES): C(=C1c2ccccc2CCc2ccccc21)c1ccc(C=C2c3ccccc3CCc3ccccc32)cc1

emission maximum (in C1CCOC1): 516 nm
Structure (SMILES): C[Si](C)(C)c1ccc(-c2ccc(-c3ccc(-c4ccc(-c5ccc([Si](C)(C)C)cc5)cc4)c4nsnc34)cc2)cc1

Structure (SMILES): COc1cc(OC)cc(C2=C(c3cc(OC)c(OC)c(OC)c3)C3=Nc4c(-c5cc(OC)c(OC)c(OC)c5)c(-c5cc(OC)cc(OC)c5)c(-c5ccc(C(C)(C)C)cc5)n4[B-](F)(F)[N+]3=C2c2ccc(C(C)(C)C)cc2)c1
emission maximum (in Cc1ccccc1): 721 nm

emission maximum (in ClC(Cl)Cl): 473 nm
Structure (SMILES): C(#Cc1ccccc1)C(C#Cc1ccccc1)=Cc1ccc2cc(C=C(C#Cc3ccccc3)C#Cc3ccccc3)ccc2c1

emission maximum (in O): 502 nm
Structure (SMILES): CC[n+]1c(-c2ccccc2)c2cc(-n3cccc3)ccc2c2ccc(-n3cccc3)cc21

emission maximum (in CC#N): 505 nm
emission maximum (in O): 545 nm
Structure (SMILES): Nc1n[n+]([O-])c2ccccc2[n+]1[O-]

emission maximum (in CCO): 601 nm
emission maximum (in O): 603 nm
Structure (SMILES): O=C([O-])c1ccc(C2=c3cc4c5c(c3Oc3c2cc2c6c3CCCN6CCC2)CCC[N+]=5CCC4)c(C(=O)[O-])c1

Structure (SMILES): Cc1ccc(-n2c(-c3ccccc3NS(=O)(=O)c3ccc(C)cc3)nc3c4ccccc4c4ccccc4c32)cc1
emission maximum (in Cc1ccccc1): 365 nm

emission maximum (in CO): 653 nm
emission maximum (in ClC(Cl)Cl): 654 nm
Structure (SMILES): CN1C(=CC2=C([O-])C(=CC3=[N+](C)c4ccc(Cl)cc4C3(C)C)C2=O)C(C)(C)c2cc(Cl)ccc21

emission maximum (in C1CCCCC1): 395 nm
Structure (SMILES): CCCC1(CCC)c2cc(-c3ccc(C(C)(C)C)cc3)ccc2-c2ccc(-c3ccc4c(c3)C(CCC)(CCC)c3cc(-c5ccc(C(C)(C)C)cc5)ccc3-4)cc21

Structure (SMILES): COCCC1=Cc2nc1ccc1[nH]c(cc1CCOC)c1nc(c(N3C(=O)CCCC3=O)cc3[nH]c2cc3CCOC)C(CCOC)=C1
emission maximum (in Cc1ccccc1): 646 nm

Structure (SMILES): CCn1c2cc(OC)ccc2c2c3nsnc3c3c4ccc(OC)cc4n(CC)c3c21
emission maximum (in CN(C)C=O): 557 nm
emission maximum (in Cc1ccccc1): 517 nm
emission maximum (in ClCCl): 553 nm

emission maximum (in ClCCl): 422 nm
Structure (SMILES): Cc1cn2cc(-c3ccccc3)[n-][n+]2c1

emission maximum (in C1CCCCC1): 400 nm
emission maximum (in CO): 420 nm
Structure (SMILES): COc1ccc(/C=C(\c2ccccc2)c2nc3ccccc3s2)cc1

emission maximum (in ClC(Cl)Cl): 648 nm
Structure (SMILES): Cc1c2c(c(C)c3ccccc13)-c1c-2ccc2nc3ccccc3nc12

Structure (SMILES): Cc1cc(C)c(B(c2ccccc2N(c2ccccc2)c2ccccc2)c2c(C)cc(C)cc2C)c(C)c1
emission maximum (in CC(C)=O): 532.95 nm
emission maximum (in Cc1ccccc1): 498 nm
emission maximum (in ClCCl): 518.5 nm

emission maximum (in ClCCl): 450 nm
Structure (SMILES): Fc1ccc(C#Cc2c(C#Cc3ccc(F)cc3)c(C#Cc3ccc(F)cc3)c(C#Cc3ccc(F)cc3)c(C#Cc3ccc(F)cc3)c2C#Cc2ccc(F)cc2)cc1
